Measurements published in the METLIN SMRT retention time set (Domingo-Almenara et al. 2019).

Assay: gradient 5% acetonitrile 3 min, to 50% in 2 min, to 85% in 15 min, held 3 min, 100 µL/min
Settings: column: Zorbax Extend-C18 2.1 x 50 mm; eluents: water / acetonitrile, 0.1% formic acid
Summary of the method: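 Pure standards were analyzed in mixtures of ~100 molecules using HPLC coupled to a quadrupole time-of-flight mass spectrometer, in both positive and negative ionization mode. Separation used a Zorbax Extend-C18 column (2.1 × 50 mm, 1.8 μm) at 100 μL/min, with water and acetonitrile each containing 0.1% formic acid. Dead and dwell volumes were 40 μL and 900 μL, and data were collected over 3 months. Retention time was read from computationally picked adduct peaks, each inspected manually.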

CCOc1ccc(S(=O)(=O)Nc2ccc(-c3cn4ccc(C)nc4n3)cc2)cc1
RP-LC retention time: 661 s

Cc1ncn(CC(=O)Nc2ccc(F)cc2)c(=O)c1C
RP-LC retention time: 638 s

CCn1nnc2ccc(-c3noc(Cc4ccccc4C)n3)cc21
RP-LC retention time: 1030 s

O=C(Nc1ccccc1)C1CC(=O)N(c2n[nH]c3cccc(F)c23)C1 (centres undefined)
RP-LC retention time: 730 s

CCc1ccc(NC(=O)CN2CCc3[nH]c4c(OC)ccc(Cl)c4c(=O)c3C2)cc1
RP-LC retention time: 661 s

Cc1ccc(C(=O)N2CCN(c3cc(-c4cccs4)[nH]n3)CC2)cc1C
RP-LC retention time: 808 s

CCOC(=O)c1c(NC(=O)c2ccc(S(=O)(=O)N(C)C)cc2)sc(C)c1C
RP-LC retention time: 1170 s

COCCC1CCN(C(=O)CC2CCN(C(C)=O)CC2)CC1
RP-LC retention time: 626 s

CN(C)[C@@H](CCOc1cccc2ccccc12)c1ccccc1
RP-LC retention time: 807 s

Cc1ccc(NC(=O)CN2C(=O)NC(c3ccccc3Cl)C3=C2COC3=O)cc1C (centres undefined)
RP-LC retention time: 819 s

Cc1cc(C)c2nc(C)cc(C(=O)NCc3ccco3)c2c1
RP-LC retention time: 698 s

Cc1oc(C2CCN(S(=O)(=O)c3ccc(F)c(F)c3)CC2)nc1C(=O)N1CCCC1
RP-LC retention time: 936 s

O=C1COc2ccc(S(=O)(=O)N3CCC(C(=O)NCc4ccco4)CC3)cc2N1
RP-LC retention time: 697 s

O=C(CN1CCN(c2ccccc2F)C1=O)Nc1ccc(OC(F)(F)F)cc1
RP-LC retention time: 855 s

CC(C)C(=O)NCc1csc(C2CCCN(C(=O)CC(C)(C)C)C2)n1 (centres undefined)
RP-LC retention time: 734 s

O=C(Cc1cccs1)NCC1CCS(=O)(=O)C1 (centres undefined)
RP-LC retention time: 586 s

COc1ccc(NC(=O)c2cnc(N3CCN(c4ccc(OC)cc4)CC3)nc2N)cc1
RP-LC retention time: 731 s

CCCC(=O)N(C)CC1CCOCC1
RP-LC retention time: 630 s

CCc1ccccc1S(=O)(=O)N1CCC(N2CCN(Cc3ccc(C)cc3)C(=O)C2=O)CC1
RP-LC retention time: 955 s

CCc1sc(NC(=O)Cn2nc3c(cc2=O)CCCC3)nc1C(=O)OC
RP-LC retention time: 764 s

O=C1CCN(C(=O)C2CCN(C(=O)CC3CCCC3)CC2)CCCCCCN1
RP-LC retention time: 686 s

CCS(=O)(=O)N1CCCc2cc(C(=O)NC3CCCCCC3)ccc21
RP-LC retention time: 956 s

CC(C)CN1C(=O)c2ccccc2C(C(=O)NCCCN2CCN(C)CC2)C1c1cccs1 (centres undefined)
RP-LC retention time: 607 s

Cc1ccc(-c2csc(Cc3nc(-c4ccc5c(c4)OCO5)no3)n2)cc1
RP-LC retention time: 1210 s

COCC(=O)Nc1ccc2nc(N3CCN(C4CCCCC4)CC3)cc(C(=O)O)c2c1
RP-LC retention time: 558 s

COc1ccc(-c2nnc(-c3ccc(C)c(S(=O)(=O)NC(C)C)c3)o2)cc1OC
RP-LC retention time: 873 s

CCCn1c(-c2cccc(C(=O)NCC3CCCCC3)c2)nc2cccnc21
RP-LC retention time: 904 s

CCNC(=O)c1ccc2c(c1)CCN2C(C)=O
RP-LC retention time: 609 s

Cc1nc(-c2csc(S(=O)(=O)N3CCC(C(=O)N4CCc5ccccc5C4)CC3)c2)no1
RP-LC retention time: 1050 s

O=c1c2ccccc2c(-c2nc(-c3ccncc3)no2)cn1-c1cccc(F)c1
RP-LC retention time: 1050 s

CCS(=O)(=O)N1CC(CC#N)(n2cc(-c3ncnc4[nH]ccc34)cn2)C1
RP-LC retention time: 637 s

Cc1ccc(CN2N=C(C(=O)N3CCCC3)S(=O)(=O)c3ccccc32)cc1
RP-LC retention time: 895 s

O=C(NCc1ccccn1)C1CCN(c2cc(N3CCCCC3)ncn2)CC1
RP-LC retention time: 558 s

Cc1cccc(N2CCN(C(=O)C3CC(=O)N(c4cccc(NC(=O)C(C)C)c4)C3)CC2)c1 (centres undefined)
RP-LC retention time: 803 s

CCOc1ccccc1NC(=O)Cn1nc2cc(C)nc(-c3ccccc3)n2c1=O
RP-LC retention time: 838 s

CC(C)CC(=O)Nc1ccc(-n2cnc(C(=O)N3CCSCC3)c2)nc1
RP-LC retention time: 709 s

CCC(C)(C)C(=O)N1CCCC1Cc1noc(-c2cccnc2)n1 (centres undefined)
RP-LC retention time: 839 s

CCn1ncn2cc(S(=O)(=O)Nc3ccc(Cl)cc3)cc2c1=O
RP-LC retention time: 792 s

Cc1ccc(F)cc1NC(=O)Cn1cnc2nc(N3CCC(C(=O)NC4CC4)CC3)sc2c1=O
RP-LC retention time: 674 s

CCCNc1cc(N2CCCC(CCC(=O)N3CCN(c4ccccc4)CC3)C2)ncn1 (centres undefined)
RP-LC retention time: 719 s

CCn1ccc2cc(S(=O)(=O)N3CCC(C(=O)NCCC(C)N4CCCC4)CC3)ccc21 (centres undefined)
RP-LC retention time: 648 s

CCCn1c(=O)sc2cc(S(=O)(=O)N3CCC(C(=O)NCc4ccccc4)CC3)ccc21
RP-LC retention time: 932 s

COc1cccc(-n2c(=O)c(C(=O)NCCc3ccccc3)c(O)c3cccnc32)c1
RP-LC retention time: 1200 s

CCCCN(C)C(=O)CN1C(=O)C2CCCCN2c2ccc(S(=O)(=O)N(CC)CC)cc21 (centres undefined)
RP-LC retention time: 1010 s
